# From patent US8080529B2, “Macrolides with anti-inflammatory activity” (Glaxo Group Limited, priority 2005, dated 2011)
# Like-named read-outs stand apart in the source and are kept apart here.
# Tests used:
# Assay type in all cases: cell-based
# TNF-α = assay: Inhibition of TNF-α production by stimulated human peripheral blood leukocytes in vitro; conditions: for inhibition at 10 µM / inhibition at 50 µM: Homo sapiens, Leukocyte, read-out: Percentage of inhibition of TNF-α production
# Experimental: (§1) Test substances used in in vitro experiments were dissolved in dimethyl sulfoxide (DMSO) (Kemika, Croatia) at concentrations of 50 mM and 10 mM, and were further diluted to final concentrations of 50 μM and 10 μM in 1 mL Dulbecco's modified Eagle medium (DMEM) supplemented with 1% heat inactivated fetal bovine serum (FBS), 1% L-glutamine, 50 U/ml penicillin, 50 μg/ml streptomycin and 2.5 μg/mL Fungizone (amphotericin B). Media and all media supplements were purchased from Gibco, Australia, except the FBS was purchased from Sigma, USA.
# (§2) Peripheral blood leukocytes (PBL) were obtained from venous blood of healthy volunteers by sedimentation on 2% dextran T-500 (Amersham Biosciences, USA) and subsequent centrifugations of leukocyte rich plasma.
# (§3) Peripheral blood leukocytes (PBL), isolated as described above, were seeded in a 48-well plate at a concentration of 3 to 5×10^6 cell per well in culture medium consisting of RPMI 1640 medium (Institute of Immunology, Croatia) supplemented with 10% heat-inactivated fetal calf serum (FCS, Biowhittaker, USA), 100 U/ml penicillin (Gibco, Australia), 100 μg/ml streptomycin (Gibco, Australia) and 2 mM L-glutamine (Gibco, Australia), and preincubated with the test compounds for 2 h at 37° C., in an atmosphere of 5% CO2, and 90% humidity. Then, stimuli (Sigma, USA) were added to a final concentration of 2 μg/mL lipopolysaccharide (LPS), 1 μg/mL phorbol 12-myristate 13-acetate (PMA) or 120 μg/mL zymosan. Samples were incubated overnight under conditions described above. At the end of incubation, the supernatants were transferred to eppendorf tubes and centrifuged for 10 min at 1500×g. Concentrations of human TNF-α, IL-1β, IL-6 and IL-8 were determined in cell supernatants by sandwich ELISA, using capture and detection antibodies (R&D Systems, Minneapolis, Minn.) according to the manufacturer's recommendations.
# (§4) Inhibition (as percentage) was calculated using the following formula: % inhibition=(1−concentration of cytokines in sample/concentration of cytokines in positive control)×100.
# (§5) The positive control refers to LPS-, PMA- or zymosan-stimulated samples that were not preincubated with test compounds.
# IL-1α = assay: Inhibition of IL-1 production by stimulated human peripheral blood leukocytes in vitro; conditions: for inhibition at 10 µM / inhibition at 50 µM: Homo sapiens, Leukocyte, read-out: Percentage of inhibition of IL-1α production
# IL-6 = assay: Inhibition of IL-6 production by stimulated human peripheral blood leukocytes in vitro; conditions: for inhibition at 10 µM / inhibition at 50 µM: Homo sapiens, Leukocyte, read-out: Percentage of inhibition of IL-6 production
# Experimental: as §1, §2, §3, §4, §5
# IL-8 = assay: Inhibition of IL-8 production by stimulated human peripheral blood leukocytes in vitro; conditions: for inhibition at 10 µM / inhibition at 50 µM: Homo sapiens, Leukocyte, read-out: Percentage of inhibition of IL-8 production
# Experimental: as §1, §2, §3, §4, §5
# Hep G2 = assay: Cytotoxicity assay (MTT), Hep G2 cell line; conditions: 24 h
# Experimental: (§6) To determine whether the anti-inflammatory activity of the test compounds was due to observed inhibition of cytokine production and inhibition of proliferation in vitro, and was not a consequence of cellular cytotoxicity, measurement of succinate dehydrogenase activity in living cells was performed. Cells were cultured for 24 h in RPM medium as described above at 37° C. the presence of the test compounds at concentrations of 50 μM and 12.5 μM. MTT [3-(4,5-dimethylthiazole-2-yl)-2,5-diphenyl tetrazolium bromide] (Promega, USA), a detection reagent, was then added and the cultures were incubated for 0.5-2 h. The amount of MTT-Formazan produced was determined using a spectrophotometer at 490 nm (Mosmann, J. Immunol. Methods, 1983, 65: 55-63).
# (§7) The percentage of inhibition of cell growth was calculated using the following formula: % inhibition of cell growth=[…].
# A549 = assay: Cytotoxicity assay (MTT), A549 cell line; conditions: 24 h
# Experimental: as §6, §7
compound,measurement,setting,value
CC[C@H]1OC(=O)[C@H](C)[C@@H](O[C@H]2C[C@@](C)(OC)[C@@H](OC(=O)CCN3CCN(CCOCCO)CC3)[C@H](C)O2)[C@H](C)[C@@H](O[C@@H]2O[C@H](C)C[C@H](N(C)C)[C@H]2O)[C@](C)(OC)C[C@@H](C)C(=O)N[C@H](C)[C@@H](O)[C@]1(C)O [Example 18],inhibition at 10 µM,"TNF-α; 10 μM, LPS-stimulated PBL",9%
same,inhibition at 10 µM,"TNF-α; 10 μM, PMA-stimulated PBL",38%
same,inhibition at 10 µM,"TNF-α; 10 μM, zymosan-stimulated PBL",21%
same,inhibition at 50 µM,"TNF-α; 50 μM, LPS-stimulated PBL",12%
same,inhibition at 50 µM,"TNF-α; 50 μM, PMA-stimulated PBL",57%
same,inhibition at 50 µM,"TNF-α; 50 μM, zymosan-stimulated PBL",30%
same,inhibition at 10 µM,"IL-1α; 10 μM, LPS-stimulated PBL",16%
same,inhibition at 10 µM,"IL-1α; 10 μM, PMA-stimulated PBL",34%
same,inhibition at 10 µM,"IL-1α; 10 μM, zymosan-stimulated PBL",51%
same,inhibition at 50 µM,"IL-1α; 50 μM, LPS-stimulated PBL",45%
same,inhibition at 50 µM,"IL-1α; 50 μM, PMA-stimulated PBL",68%
same,inhibition at 50 µM,"IL-1α; 50 μM, zymosan-stimulated PBL",90%
same,inhibition at 10 µM,"IL-6; 10 μM, LPS-stimulated PBL",10%
same,inhibition at 10 µM,"IL-6; 10 μM, PMA-stimulated PBL",33%
same,inhibition at 10 µM,"IL-6; 10 μM, zymosan-stimulated PBL",34%
same,inhibition at 50 µM,"IL-6; 50 μM, LPS-stimulated PBL",23%
same,inhibition at 50 µM,"IL-6; 50 μM, PMA-stimulated PBL",61%
same,inhibition at 50 µM,"IL-6; 50 μM, zymosan-stimulated PBL",63%
same,inhibition at 10 µM,"IL-8; 10 μM, LPS-stimulated PBL",6%
same,inhibition at 10 µM,"IL-8; 10 μM, PMA-stimulated PBL",7%
same,inhibition at 10 µM,"IL-8; 10 μM, zymosan-stimulated PBL",25%
same,inhibition at 50 µM,"IL-8; 50 μM, LPS-stimulated PBL",0%
same,inhibition at 50 µM,"IL-8; 50 μM, PMA-stimulated PBL",0%
same,inhibition at 50 µM,"IL-8; 50 μM, zymosan-stimulated PBL",22%
same,Percentage of inhibition of cell growth,Hep G2; 12.5 μM,5%
same,Percentage of inhibition of cell growth,Hep G2; 50 μM,3%
same,Percentage of inhibition of cell growth,A549; 12.5 μM,0%
same,Percentage of inhibition of cell growth,A549; 50 μM,0%
CC[C@H]1OC(=O)[C@H](C)[C@@H](O[C@H]2C[C@@](C)(OC)[C@@H](OC(=O)CCN3CCN(CCCN4CCCCC4)CC3)[C@H](C)O2)[C@H](C)[C@@H](O[C@@H]2O[C@H](C)C[C@H](N(C)C)[C@H]2O)[C@](C)(OC)C[C@@H](C)C(=O)N[C@H](C)[C@@H](O)[C@]1(C)O [Example 22],inhibition at 10 µM,"TNF-α; 10 μM, LPS-stimulated PBL",0%
same,inhibition at 10 µM,"TNF-α; 10 μM, PMA-stimulated PBL",0%
same,inhibition at 10 µM,"TNF-α; 10 μM, zymosan-stimulated PBL",0%
same,inhibition at 50 µM,"TNF-α; 50 μM, LPS-stimulated PBL",23%
same,inhibition at 50 µM,"TNF-α; 50 μM, PMA-stimulated PBL",55%
same,inhibition at 50 µM,"TNF-α; 50 μM, zymosan-stimulated PBL",35%
same,inhibition at 10 µM,"IL-1α; 10 μM, LPS-stimulated PBL",5%
same,inhibition at 10 µM,"IL-1α; 10 μM, PMA-stimulated PBL",14%
same,inhibition at 10 µM,"IL-1α; 10 μM, zymosan-stimulated PBL",57%
same,inhibition at 50 µM,"IL-1α; 50 μM, LPS-stimulated PBL",46%
same,inhibition at 50 µM,"IL-1α; 50 μM, PMA-stimulated PBL",56%
same,inhibition at 50 µM,"IL-1α; 50 μM, zymosan-stimulated PBL",76%
same,inhibition at 10 µM,"IL-6; 10 μM, LPS-stimulated PBL",3%
same,inhibition at 10 µM,"IL-6; 10 μM, PMA-stimulated PBL",16%
same,inhibition at 10 µM,"IL-6; 10 μM, zymosan-stimulated PBL",28%
same,inhibition at 50 µM,"IL-6; 50 μM, LPS-stimulated PBL",28%
same,inhibition at 50 µM,"IL-6; 50 μM, PMA-stimulated PBL",60%
same,inhibition at 50 µM,"IL-6; 50 μM, zymosan-stimulated PBL",51%
same,inhibition at 10 µM,"IL-8; 10 μM, LPS-stimulated PBL",0%
same,inhibition at 10 µM,"IL-8; 10 μM, PMA-stimulated PBL",0%
same,inhibition at 10 µM,"IL-8; 10 μM, zymosan-stimulated PBL",10%
same,inhibition at 50 µM,"IL-8; 50 μM, LPS-stimulated PBL",5%
same,inhibition at 50 µM,"IL-8; 50 μM, PMA-stimulated PBL",15%
same,inhibition at 50 µM,"IL-8; 50 μM, zymosan-stimulated PBL",30%
same,Percentage of inhibition of cell growth,Hep G2; 12.5 μM,3%
same,Percentage of inhibition of cell growth,Hep G2; 50 μM,1%
same,Percentage of inhibition of cell growth,A549; 12.5 μM,5%
same,Percentage of inhibition of cell growth,A549; 50 μM,0%
"CCC1OC(=O)C(C)C(OC2CC(C)(OC)C(OCCCN3CCN(CCN(CC)CC)CC3)C(C)O2)C(C)C(OC2OC(C)CC(N(C)C)C2O)C(C)(O)CC(C)CN(C)C(C)C2OC(=O)OC12C (centres unmarked) [Example 97, 4″-O-{3-[4-(2-Diethylamino-ethyl)-piperazin-1-yl]-propyl}azithromycin 11,12-cyclic carbonate]",Percentage of inhibition of TNF-α production,"TNF-α; 10 μM, LPS-stimulated PBL",0%
same,Percentage of inhibition of TNF-α production,"TNF-α; 10 μM, PMA-stimulated PBL",31%
same,Percentage of inhibition of TNF-α production,"TNF-α; 10 μM, zymosan-stimulated PBL",43%
same,Percentage of inhibition of TNF-α production,"TNF-α; 50 μM, LPS-stimulated PBL",62%
same,Percentage of inhibition of TNF-α production,"TNF-α; 50 μM, PMA-stimulated PBL",57%
same,Percentage of inhibition of TNF-α production,"TNF-α; 50 μM, zymosan-stimulated PBL",69%
same,Percentage of inhibition of IL-1α production,"IL-1α; 10 μM, LPS-stimulated PBL",0%
same,Percentage of inhibition of IL-1α production,"IL-1α; 10 μM, PMA-stimulated PBL",57%
same,Percentage of inhibition of IL-1α production,"IL-1α; 10 μM, zymosan-stimulated PBL",49%
same,Percentage of inhibition of IL-1α production,"IL-1α; 50 μM, LPS-stimulated PBL",0%
same,Percentage of inhibition of IL-1α production,"IL-1α; 50 μM, PMA-stimulated PBL",79%
same,Percentage of inhibition of IL-1α production,"IL-1α; 50 μM, zymosan-stimulated PBL",34%
same,Percentage of inhibition of IL-6 production,"IL-6; 10 μM, LPS-stimulated PBL",0%
same,Percentage of inhibition of IL-6 production,"IL-6; 10 μM, PMA-stimulated PBL",32%
same,Percentage of inhibition of IL-6 production,"IL-6; 10 μM, zymosan-stimulated PBL",9%
same,Percentage of inhibition of IL-6 production,"IL-6; 50 μM, LPS-stimulated PBL",14%
same,Percentage of inhibition of IL-6 production,"IL-6; 50 μM, PMA-stimulated PBL",51%
same,Percentage of inhibition of IL-6 production,"IL-6; 50 μM, zymosan-stimulated PBL",56%
same,Percentage of inhibition of IL-8 production,"IL-8; 10 μM, LPS-stimulated PBL",0%
same,Percentage of inhibition of IL-8 production,"IL-8; 10 μM, PMA-stimulated PBL",4%
same,Percentage of inhibition of IL-8 production,"IL-8; 10 μM, zymosan-stimulated PBL",10%
same,Percentage of inhibition of IL-8 production,"IL-8; 50 μM, LPS-stimulated PBL",23%
same,Percentage of inhibition of IL-8 production,"IL-8; 50 μM, PMA-stimulated PBL",29%
same,Percentage of inhibition of IL-8 production,"IL-8; 50 μM, zymosan-stimulated PBL",34%
